Counter-ions that a name gives are not always drawn. Like-named read-outs stand apart in the source and are kept apart here. A value given as a limit tells only on which side of the number the result lay.

Type in all cases: biochemical
One test addresses T1, human factor Xa (Homo sapiens, UniProt P00742).
T1 construct: purchased Enzyme Research Laboratories, South Bend, Ind
The test can be described thus: Inhibition of human factor Xa (chromogenic substrate S2222), inhibitory constant Ki. The settings on record: S2222, pH 7.5, 30 minutes, read-out: Ki values for inhibition of Serine Proteases: Factor Xa. On the procedure:
(§1) The effectiveness of compounds of the present invention as inhibitors of blood coagulation proteases was determined using purified human proteases and synthetic substrates following procedures similar to those described in Kettner et al. (1990).
(§2) For these assays, the rate of enzymatic (thrombin, Factor Xa, and Factor VIIa) hydrolysis of chromogenic substrates (S2238 (H-D-Phe-Pip-Arg-pNA), S2222, and S2288, respectively; Kabi Pharmacia, Franklin, Ohio.) was measured both in the absence and presence of compounds of the present invention. […] A decrease in the rate of absorbance change at 405 nm in the presence of inhibitor is indicative of enzyme inhibition. The results of this assay are expressed as inhibitory constant, Ki.
(§3) Thrombin and Xa determinations were made in 0.10M sodium phosphate buffer, pH 7.5, containing 0.20M NaCl, and 0.5% PEG 8000. VIIa determinations were made in 0.05M tris buffer, pH 7.6, containing 0.10M NaCl, 4 mM CaCl2, and 0.1% bovine serum albumin. The Michaelis constant, Km, for substrate hydrolysis was determined at 5° C. using the method of Lineweaver and Burk.
(§4) Values of Ki were determined by allowing 0.2-0.5 nM human thrombin or human factor Xa (Enzyme Research Laboratories, South Bend, Ind.), or 50 nM human factor VIIa (BiosPacific, Emeryville, Calif.) react with the substrate (0.20 mM-1 mM) in the presence of inhibitor. Reactions were allowed to go for 30 minutes and the velocities (rate of absorbance change vs time) were measured in the time frame of 25-30 minutes. The following relationship was used to calculate Ki values. [formula] where: vo is the velocity of the control in the absence of inhibitor;
(§5) vs is the velocity in the presence of inhibitor;
(§6) I is the concentration of inhibitor;
(§7) Ki is the dissociation constant of the enzyme: inhibitor complex;
(§8) S is the concentration of substrate;
(§9) Km is the Michaelis constant.

For another test, the target named is T2, human thrombin (Homo sapiens, UniProt P00734).
T2 construct: purchased Enzyme Research Laboratories, South Bend, Ind
The test can be described thus: Inhibition of human thrombin (chromogenic substrate S2238), inhibitory constant Ki. The note with it: 0.2-0.5 nM human thrombin, S2238, pH 7.5, 30 minutes; read-out: Ki values for inhibition of Serine Proteases: Thrombin. Here is the method: as §1, §2, §3, §4, §5, §6, §7, §8, §9

The target of the next test is T3, human factor VIIa (Homo sapiens, UniProt P08709).
T3 construct: Factor VIIa in the extrinsic pathway; purchased BiosPacific, Emeryville, Calif
T3 sequence (P08709 213-466 limits assumed): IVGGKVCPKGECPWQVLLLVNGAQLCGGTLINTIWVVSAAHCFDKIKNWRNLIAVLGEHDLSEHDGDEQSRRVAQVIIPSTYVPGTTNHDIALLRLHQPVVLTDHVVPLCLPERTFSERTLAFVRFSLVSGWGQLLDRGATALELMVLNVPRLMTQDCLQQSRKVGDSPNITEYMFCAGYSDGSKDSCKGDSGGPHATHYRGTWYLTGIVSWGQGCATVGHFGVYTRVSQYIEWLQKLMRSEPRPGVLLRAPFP
T3 sequence (P08709 61-212 partner limits assumed): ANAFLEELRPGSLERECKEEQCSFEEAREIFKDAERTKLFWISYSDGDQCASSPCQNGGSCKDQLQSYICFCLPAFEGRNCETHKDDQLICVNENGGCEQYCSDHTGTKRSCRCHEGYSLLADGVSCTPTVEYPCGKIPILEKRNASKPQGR
In words: Inhibition of human factor VIIa (chromogenic substrate S2288), inhibitory constant Ki. Here is the method:
as §1, §2, §3, §4, §5, §6, §7, §8, §9

The mark [1] stands for this setting: 50 nM human factor VIIa, S2288, pH 7.6, 4 mM CaCl2, 30 minutes, read-out: Ki values for inhibition of Serine Proteases: Factor VIIa.

T1 sequence (P00742 235-488 limits assumed): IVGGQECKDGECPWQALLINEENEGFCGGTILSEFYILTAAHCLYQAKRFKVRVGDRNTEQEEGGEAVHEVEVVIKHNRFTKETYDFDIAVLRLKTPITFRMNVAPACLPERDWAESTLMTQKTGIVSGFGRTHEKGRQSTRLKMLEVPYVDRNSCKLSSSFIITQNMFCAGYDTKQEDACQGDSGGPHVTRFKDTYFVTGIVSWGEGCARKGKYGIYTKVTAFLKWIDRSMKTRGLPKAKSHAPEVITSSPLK
T1 sequence (P00742 41-179 partner limits assumed): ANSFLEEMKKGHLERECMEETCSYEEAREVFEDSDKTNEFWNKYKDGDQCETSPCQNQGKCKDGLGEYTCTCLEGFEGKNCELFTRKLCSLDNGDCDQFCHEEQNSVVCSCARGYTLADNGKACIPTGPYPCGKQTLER

For `CSCc1nc(Cc2ccccc2)n(CC(=O)N[C@@H](CCCCN)B2O[C@@H]3C[C@@H]4C[C@@H](C4(C)C)[C@]3(C)O2)n1` [Example 892], the Ki was 0.5 to 50 µM on human factor Xa, less than 0.5 µM at human thrombin and 0.5 to 50 µM on human factor VIIa (setting [1]).

As for `CC1(C)[C@@H]2C[C@H]3OB([C@H](CCCCN)NC(=O)Cn4nc(CC#N)nc4Cc4ccccc4)O[C@@]3(C)[C@H]1C2` [Example 898, R-N^1-(3-Cyanomethyl-5-phenylmethyl-1,2,4-triazol-1-yl)acetyl-borolysine, (+)-pinanediol ester, hydrochloride], the Ki on human factor Xa was 0.5 to 50 µM; at human thrombin it was less than 0.5 µM; on human factor VIIa, 0.5 to 50 µM.

On to `CC1(C)[C@@H]2C[C@H]3OB([C@H](CCCCN)NC(=O)Cn4nc(CC(=O)O)nc4Cc4ccccc4)O[C@@]3(C)[C@H]1C2` [Example 905], for which the results for the Ki on human factor Xa, on human thrombin and on human factor VIIa (setting [1]) were 0.5 to 50 µM, less than 50 µM and greater than 500 µM, respectively.

Take `CC1(C)[C@@H]2C[C@H]3OB([C@H](CCCCN)NC(=O)Cn4nc(CO)nc4Cc4ccccc4)O[C@@]3(C)[C@H]1C2` [Example 913]: the Ki on human factor Xa is greater than 500 µM; on human thrombin it was less than 0.5 µM; at human factor VIIa (setting [1]), 0.5 to 50 µM.

As to `CC1(C)[C@@H]2C[C@H]3OB([C@H](CCCCN)NC(=O)Cn4nc(COCc5ccccc5)nc4Cc4ccccc4)O[C@@]3(C)[C@H]1C2` [Example 914], the Ki is 0.5 to 50 µM at human factor Xa, less than 0.5 µM at human thrombin and 0.5 to 50 µM on human factor VIIa (setting [1]).

As for `COC(=O)Cc1nc(Cc2ccccc2)n(CC(=O)N[C@@H](CCCCN)B2O[C@@H]3C[C@@H]4C[C@@H](C4(C)C)[C@]3(C)O2)n1` [Example 917], the Ki on human factor Xa is 0.5 to 50 µM; on human thrombin it was less than 0.5 µM; on human factor VIIa (setting [1]) it was 0.5 to 50 µM.

With `CC1(C)[C@@H]2C[C@H]3OB([C@H](CCCCN)NC(=O)Cn4nc(Cc5ccccc5)nc4Cc4ccccc4)O[C@@]3(C)[C@H]1C2` [Example 921], the results for the Ki on human factor Xa, on human thrombin and at human factor VIIa were 0.5 to 50 µM, less than 0.5 µM and 0.5 to 50 µM, respectively.

Take `CC1(C)[C@@H]2C[C@H]3OB([C@H](CCCCN)NC(=O)Cn4nc(-c5cccc([N+](=O)[O-])c5)nc4Cc4ccccc4)O[C@@]3(C)[C@H]1C2` [Example 923]: the results for the Ki on human factor Xa, at human thrombin and on human factor VIIa were 0.5 to 50 µM, less than 0.5 µM and 0.5 to 50 µM, respectively.

In the case of `CC1(C)[C@@H]2C[C@H]3OB([C@H](CCCCN)NC(=O)Cn4nc(-c5cccc(N)c5)nc4Cc4ccccc4)O[C@@]3(C)[C@H]1C2` [Example 931], the inhibition constant (Ki) at human factor Xa is 0.5 to 50 µM; at human thrombin, less than 0.5 µM; at human factor VIIa, 0.5 to 50 µM.

Take `COC(=O)Cc1nc(Cc2ccccc2)nn1CC(=O)N[C@@H](CCCCN)B1OC2CC3CC(C3(C)C)C2(C)O1` (stereo partly drawn) [Example 2443]: the inhibition constant Ki was 0.5 to 50 µM on human factor Xa, less than 0.5 µM on human thrombin and 0.5 to 50 µM at human factor VIIa (setting [1]).

Regarding `CC1(C)C2CC3OB([C@H](CCCCN)NC(=O)Cn4nc(Cc5ccccc5)nc4-c4ccccc4)OC3(C)C1C2` (stereo partly drawn) [Example 2446], the Ki was 0.5 to 50 µM on human factor Xa, less than 0.5 µM at human thrombin and 0.5 to 50 µM at human factor VIIa (setting [1]).

`CC1(C)C2CC3OB([C@H](CCCCN)NC(=O)Cn4nc(Cc5ccccc5)nc4Cc4ccccc4)OC3(C)C1C2` (stereo partly drawn) [Example 2447]: the inhibitory constant (Ki) on human factor Xa is 0.5 to 50 µM; at human thrombin, less than 0.5 µM; at human factor VIIa (setting [1]) it was 0.5 to 50 µM.

`NCCCC[C@H](NC(=O)Cn1cnc(Cc2ccccc2)n1)B(O)O` [Example 2499]: the Ki on human factor Xa was 0.5 to 50 µM; at human thrombin, less than 0.5 µM; at human factor VIIa (setting [1]), 0.5 to 50 µM.

With `NCCCC[C@H](NC(=O)Cn1nc(Cc2ccccc2)nc1-c1ccccc1)B(O)O` [Example 2533], the Ki at human factor Xa was 0.5 to 50 µM; at human thrombin, less than 0.5 µM; on human factor VIIa (setting [1]), greater than 500 µM.

For the compound `Cc1nc(-c2ccccc2)ncc1C(=O)N[C@@H](CCCCN)B1O[C@@H]2C[C@@H]3C[C@@H](C3(C)C)[C@]2(C)O1` [Example 3458, R-N^1-((2-phenyl-4-methylpyrimidin-5-yl)carbonyl)borolysine, (+)-pinanediol ester, hydrochloride], the results for the inhibitory constant (Ki) on human factor Xa, on human thrombin and at human factor VIIa (setting [1]) were greater than 500 µM, less than 0.5 µM and 0.5 to 50 µM, respectively.

For `Cc1nc(-c2ccccc2)ncc1C(=O)N[C@@H](CCCNC(=N)N)B1O[C@@H]2C[C@@H]3C[C@@H](C3(C)C)[C@]2(C)O1` [Example 3538, R-N^1-((2-phenyl-4-methylpyrimidin-5-yl)carbonyl)boroarginine, (+)-pinanediol ester, hydrochloride], the inhibition constant Ki at human factor Xa was 0.5 to 50 µM; at human thrombin it was less than 0.5 µM; on human factor VIIa (setting [1]), 0.5 to 50 µM.
